According to patent US10307383B2, “Cosmetic composition for preventing or ameliorating hypersensitive skin comprising cedrol or derivatives thereof, or pharmaceutically acceptable salts thereof” (University of Seoul Industry Cooperation Foundation, priority 2017, dated 2019):
Values after ≈ are worked out from the molar mass of the structure shown.

Columns and labels:
[1] = test system: psoriasis induced mice (imiquimod); assay: Ear thickness reduction effect in the psoriasis induced mice (PASI); assay type: in vivo, Balb/c mouse; settings: for mean ear thickness point (PASI): day 7, 100 mg/kg oral once a day, IMQ applied, IMQ alone 3.5
Protocol: (§1) To investigate the delayed effect of cedrol, cedryl acetate, and alpha-cedrene on the development of psoriasis, total 5 groups of mice were prepared (8 mice/group). First, the hair of the entire back of the 8-week-old male Balb/c mouse whose immune system was weakened was removed by using a hair clipper (Kimlaube Hair pen 325,327, Rikei, Korea). In the middle of the shaved back of the mouse, 2 mg of imiquimod (3M Health Care Limited, England) was applied in the area of 2 cm×1.5 cm and also 1,125 mg of imiquimod was applied on the right ear of the mouse every day once a day to induce psoriasis.
(§2) The mice prepared above were divided into the distilled water treated group (IMQ), the cedrol treated group (C), the cedryl acetate treated group (CA), and the alpha-cedrene treated group (CE). At this time, the mice were orally treated with distilled water at the concentration of 200 μl/mouse and cedrol or its derivatives at the concentration of 200 μl/mouse (100 mg/kg). The day when distilled water or the compound administration started was recorded as day 0 and the administration was performed once a day for a week, during which photo-recording was performed every day (FIGS. 2A˜2D). In the meantime, instead of applying imiquimod, 40 mg of vaseline was applied on the back of the control group (CONT) and 22.5 mg of vaseline was applied on the right ear of the control group. And the control group was orally administered with distilled water (200 μl/mouse).
Then, the psoriasis area severity index (PASI) was calculated with the range of 1˜4 to confirm the reduction effect of the compounds on the ear thickness.

[2] = test system: psoriasis induced mice (imiquimod); assay: Skin flair reduction effect in the psoriasis induced mice (PASI); assay type: in vivo, Balb/c mouse; settings: day 7, 100 mg/kg oral once a day, IMQ applied; IMQ alone 4.00
Protocol: as §1, §2
Then, the psoriasis area severity index (PASI) was calculated to confirm the reduction effect of the compounds on skin flair. Skin flair is a symptom of psoriasis. The application of IMQ can induce skin flair.

[3] = test system: psoriasis induced mice (imiquimod); assay: Skin pain reduction effect in the psoriasis induced mice (back pinch, mice counted); assay type: in vivo, Balb/c mouse; settings: IMQ applied, 8 mice/group
Protocol: as §1, §2
When the back of the psoriasis induced mice orally administered with cedrol, cedryl acetate, and alpha-cedrene of Example <2-1> was pinched, those mice who sound painfully with strong rejection were counted. Skin pain is a symptom of psoriasis, and when IMQ is applied, skin pain becomes stronger as time goes by.

[4] = test system: IL-17A expression in the spleen; assay: Inhibition of IL-17A expression in the spleen of the psoriasis induced mice (real-time PCR); assay type: in vivo, Balb/c mouse; settings: real-time PCR, 100 mg/kg oral, IMQ applied; IMQ alone 54.9±5.5
Protocol: as §1, §2
The inhibition of IL-17A expression in the spleen of the psoriasis Induced mice according to the oral administration of cedrol, cedryl acetate, and alpha-cedrene was investigated by real-time PCR (polymerase chain reaction).
Particularly, the spleen was extracted from the psoriasis Induced mice orally administered with cedrol, cedryl acetate, and alpha-cedrene of Example <2-1>. Total RNA was extracted from the spleen by the conventional method. To synthesize cDNA, 2 μg of RNA was loaded in 9 μl of DEPC (RNase free water), indicating the dilution of the concentration. 1 μl of oligo dT was added thereto, followed by reaction at 70° C. for 10 minutes. The sample was treated on ice for 5 minutes, to which 2 μl of 10× reaction buffer, 2 μl of dNTP (10 mM each), 1 μl of M-MLV reverse transcriptase, and 5 μl of DNase free water were added to make the total volume of the reaction mixture 20 μl. The mixture was reacted at 42° C. for 1 hour to synthesize cDNA. The reaction mixture was heated at 72° C. for 10 minutes to remove the reverse transcriptase activity. Then, the reaction mixture was stored at −20° C. Real-time PCR was performed by using AMPIGENE qPCR 1-Step Green Kit (Enzo Life Sciences Inc, USA). […]

[5] = test system: psoriasis induced mice (imiquimod); assay: Recovery effect on ear thickness of the psoriasis induced mice after termination of imiquimod (PASI); assay type: in vivo, Balb/c mouse
Protocol: (§3) Imiquimod was applied to the psoriasis induced mice which had developed psoriasis for a week in Example <2-1>. The application was stopped 8 days after the application began. The groups CON and IMQ were treated with distilled water, the group C was treated with cedrol, the group CA was treated with cedryl acetate, the group CE was treated with alpha-cedrene alone at the concentration of 100 mg/kg in 200 μl, every day via oral-administration. Day 8 was the day the imiquimod application was stopped, since then the compounds were administered for 1 week once a day, during which photo-recording was performed (FIGS. 13A˜13D).
The psoriasis area severity index (Psoriasis Area Severity Index, PASI) was given from the point 1 to point 4, based on which the recovery effect on the ear thickness was evaluated.

[6] = test system: psoriasis induced mice (imiquimod); assay: Recovery effect on keratosis of the psoriasis induced mice after termination of imiquimod (PASI); assay type: in vivo, Balb/c mouse
Protocol: as §3
Then, the psoriasis area severity index (Psoriasis Area Severity Index, PASI) was calculated, based on which the recovery effect on keratosis was evaluated.

IL-17A expression = assay: IL-17A inhibition assay in IL-17 luciferase-(LUCPorter) stable reporter cell line; settings: for Inhibition of IL-17A expression (%) Experiment-1 / Inhibition of IL-17A expression (%) Experiment-2 / Inhibition of IL-17A expression (%) Experiment-3: 6 hours; for expression of IL-17A (luciferase units): control group 2,582 units; for suppression of the expression of IL-17A (in words): 10, 100, or 1,000 μg/ml; for inhibition at 10 µg/mL / inhibition at 100 µg/mL / inhibition at 1000 µg/mL / IC50: Homo sapiens; for inhibition at 10 µg/mL / inhibition at 100 µg/mL / inhibition at 1000 µg/mL: read-out: Average Inhibition (%); for IC50: read-out: IC50 to inhibit the IL-17A expression by 50%
[7] = day 8 (imiquimod application stopped), 100 mg/kg oral
[8] = 100 mg/kg oral after termination of imiquimod

| Compound | mean ear thickness point (PASI) [1] [point] | skin flair mean point (PASI) [2] [point] | IL-17A expression value in the spleen (non-treated control group regarded as value 1) [4] | PASI reflecting the ear thickness [5, 7] [point] | PASI reflecting keratosis [6, 7] [point] | expression of IL-17A, % by the control (IL-17A expression; 10 μg/ml) [% by the control] | Inhibition of IL-17A expression (%) Experiment-2 (IL-17A expression; 10 μg/ml) [%] | Inhibition of IL-17A expression (%) Experiment-3 (IL-17A expression; 10 μg/ml) [%] | expression of IL-17A (luciferase units) (IL-17A expression; 10 μg/ml) | expression of IL-17A, % by the control (IL-17A expression; 100 μg/ml) [% by the control] | Inhibition of IL-17A expression (%) Experiment-2 (IL-17A expression; 100 μg/ml) [%] | Inhibition of IL-17A expression (%) Experiment-3 (IL-17A expression; 100 μg/ml) [%] | expression of IL-17A (luciferase units) (IL-17A expression; 100 μg/ml) | expression of IL-17A, % by the control (IL-17A expression; 1,000 μg/ml) [% by the control] | Inhibition of IL-17A expression (%) Experiment-2 (IL-17A expression; 1000 μg/ml) [%] | Inhibition of IL-17A expression (%) Experiment-3 (IL-17A expression; 1000 μg/ml) [%] | expression of IL-17A (luciferase units) (IL-17A expression; 1,000 μg/ml) [units] | suppression of the expression of IL-17A (in words) (IL-17A expression) | inhibition at 10 µg/mL (IL-17A expression) [%] | inhibition at 100 µg/mL (IL-17A expression) [%] | further results |
| --- | --- | --- | --- | --- | --- | --- | --- | --- | --- | --- | --- | --- | --- | --- | --- | --- | --- | --- | --- | --- | --- |
| C[C@@H]1CC[C@H]2C(C)(C)[C@H]3C[C@@]12CC[C@@]3(C)O [cedrol, Cedrol] | 2.6 | 3.33 | 1.1±0.1 | 4.0±0.6 | 3.0±0.6 | 67 | 0 | 33 | 1,718±174 units | 57 | 14 | 43 | 1,460±124 units | 28 | 59 | 72 | 715±45 | dose-dependently | 19 | 26 | number of mice showing skin pain ([3]; day 4, 100 mg/kg oral): one; number of mice showing skin pain ([3]; day 5, 100 mg/kg oral): no mice; PASI reflecting the ear thickness ([5]; day 16, 100 mg/kg oral once a day after termination of imiquimod): 0.7±0.6 point; keratosis recovery effect, comparison in words [6, 8]: strongest recovery effect; keratosis recovered to normal (in words) ([6]; on day 15, 100 mg/kg oral after termination of imiquimod): all 8 mice were recovered to normal; Inhibition of IL-17A expression (%) Experiment-1 (IL-17A expression; 10 μg/ml): 24%; Inhibition of IL-17A expression (%) Experiment-1 (IL-17A expression; 100 μg/ml): 21%; Inhibition of IL-17A expression (%) Experiment-1 (IL-17A expression; 1000 μg/ml): 76%; inhibition at 1000 µg/mL (IL-17A expression): 69%; IC50 (IL-17A expression): 726 µg/mL (≈ 3.26 mM) |
| CC(=O)O[C@]1(C)CC[C@@]23C[C@@H]1C(C)(C)[C@@H]2CC[C@H]3C [cedryl acetate, Cedryl acetate] | 2.3 | 3.16 | 7.4±0.7 | 4.0±0.6 | 4.0±0.6 | 77 | 15 | 23 | 1,994±304 units | 64 | 27 | 36 | 1,648±138 units | 10 | 74 | 90 | 257±6 | dose-dependently | 19 | 31.5 | ear thickness reduction effect, comparison in words ([1]; 100 mg/kg oral, 7 days): strongest reduction effect; number of mice showing skin pain ([3]; day 6, 100 mg/kg oral): one; number of mice showing skin pain ([3]; day 7, 100 mg/kg oral, IMQ alone 5): no mice; ear thickness recovery effect, comparison in words [5, 8]: strongest recovery effect; ear thickness recovered to normal (in words) ([5]; from day 15, 100 mg/kg oral after termination of imiquimod): all 8 mice were recovered to normal; PASI reflecting keratosis ([6]; day 14, 100 mg/kg oral once a day after termination of imiquimod): 1.0±0.0 point; inhibition at 1000 µg/mL (IL-17A expression): 82%; IC50 (IL-17A expression): 608 µg/mL; IL-17A expression inhibition activity, comparison in words (IL-17A expression; order by IC50 of Table 3): strongest IL-17A expression inhibition activity |
